Experimental data taken from patent publication US9180163B2, “Parstatin peptides” (priority 2009, dated 2015).
Ends that are not written are not given here.

Key:
[1] = system: myocardial ischemia-reperfusion injury in Sprague Dawley rats; details: for infarct size, inhibitor alone: without parstatin (1-26), L-NMA 15 μg/Kg, ODQ 1 mg/kg, glibenclamide 3 mg/kg, atractyloside 3 mg/Kg
Description: Parstatin (1-41) was used in an in vivo rat model of cardiac ischemia and reperfusion, and in an in vitro isolated rat heart model of ischemia-reperfusion injury.
For in vivo infarct size studies, rats were anesthetized with pentobarbital sodium (50 mg/Kg) and heparin (1000 IU/Kg) and underwent 30 min of regional ischemia followed by 120 min of reperfusion. Parstatin (1-41) was administered-intravenously over 1 min starting 15 min prior to ischemia, or 15 min after the onset of ischemia, or 10 seconds after the onset of reperfusion in separate series of experiments (n=6/group).
To induce ischemia, ligature was positioned around the left main coronary artery and threaded through a plastic snare to permit reversible occlusion of the coronary artery. Coronary occlusion was induced by clamping the snare onto the heart and reperfusion was achieved by releasing the snare. At the end of reperfusion, the coronary artery was re-occluded and the risk zone was delineated by perfusion of 0.5% Evans' blue into the aortic cannula. Hearts were sectioned and incubated in 1% triphenyltetrazolium chloride in phosphate buffer for 15 min to define white necrotic tissue when fixed in 10% formalin for 24 h. Area at risk (AAR) and infarct-to-risk rations were determined by computerized planimetry using J-Image v.i.6 software (NIH, Bethesda, Mass.).
For in vivo infarct size/ischemia-reperfusion studies, rats were anesthetized with pentobarbital sodium (50 mg/Kg) and heparin (1000 IU/Kg) and underwent 30 min of regional ischemia followed by 120 min of reperfusion. Human hydrophobic parstatin (1-26) fragment was administered intravenously over 1 min at one of three time points: 1) starting 15 min prior to ischemia, 2) 15 min after the onset of ischemia, or 3) 10 seconds after the onset of reperfusion in a separate series of experiments (n=6/group).
Ischemia was induced by placement of a ligature around the left main coronary artery which was threaded through a plastic snare to permit reversible occlusion of the coronary artery. Coronary occlusion was induced by clamping the snare onto the heart and reperfusion was achieved by releasing the snare. At the end of reperfusion, the coronary artery was re-occluded and the risk zone was delineated by perfusion 0.5% Evans' blue into the aortic cannula.
Hearts were sectioned and incubated in 1% triphenyltetrazolium chloride in phosphate buffer for 15 min to define white necrotic tissue when fixed in 10% formalin for 24 h. Area at risk (AAR) and infarct-to-risk rations were determined by computerized planimetry using J-Image v.i.6 software (NIH, Bethesda, Mass.). The principal endpoint of these studies was infarct size expressed as a percentage of the area at risk.

[2] = system: isolated rat hearts; experiment: isolated rat heart ischemia-reperfusion; details: for infarct size / LVDP, inhibitor alone: without parstatin (1-41), L-NMA 100 μM, ODQ 10 μM
Description: For in vitro studies, excised hearts were retrogradely perfused through the aorta with a modified Krebs buffer. Coronary flow rate was determined by timed collection of the coronary effluent. A saline-filled latex balloon connected to a pressure transducer was inserted into the left […] (LV), and baseline end-diastolic pressure was set at 5-10 mmHg. Heart rate, LV end-diastolic pressure and LV developed pressures (LVDP) were recorded continuously. The measurements for post-ischemic recovery of LVDP used for comparison were taken at 180 min of reperfusion. After stabilization for 15-20 min, the hearts (n=6/group) were subjected to 30 min of regional ischemia, followed by 180 min of reperfusion. Different concentrations of […] (1-41) were perfused 15 min prior to coronary occlusion until occlusion. Control hearts produced an infarct size of 51±3% of the area at risk (FIG. 19A). […] A picture representation of infarct in control versus […] Similarly, […] (1-41) increased recovery of LVDP in a concentration-dependent manner (FIG. 19B). Again, the optimal concentration was 1 μM which produced a 23% recovery of LVDP (FIG. 19B).

[3] = system: HUVEC cells; experiment: [3H]-thymidine incorporation (DNA synthesis); type: cell-based, human; details: 10 μM, bFGF 5 ng/ml
Description: The ability of parstatin (1-41) to inhibit DNA synthesis of endothelial cells was assessed in thymidine incorporation assays. HUVEC cells were grown until 60-80% confluent in 24-well plates. Cells were treated with indicated peptides in serum-free medium containing either 0.5% BSA, or VEGF, or bFGF, or medium containing 5% FBS, or epidermal growth factor (EGF), or heparin-binging EGF (HB-EGF) for 18 hours. All cells were pulsed with 0.5 μCi/ml [3H]-thymidine (ICN Biomedicals Inc., Irvine Calif.) for additional 6 h. Radioactivity incorporated into DNA was determined in liquid scintillation counter.

[4] = system: Erk1/2 (p42/44 MAPK) in HUVEC cells; experiment: Erk1/2 phosphorylation immunoblot (MAP kinase pathway); type: cell-based, human; details: pretreatment 1 h, 10 μM; stimulated by FBS, bFGF or VEGF
Description: The MAPK (Erk1/2, p42/44) cascade mediates mitogenesis. […] HUVEC cells were cultured in 35 mm tissue culture dishes. After reaching 80% confluency, cells were growth factor-starved and subsequently stimulated for 10 min with vehicle or indicated agents. In combination experiments, cells were pretreated with parstatin or other peptides for 10 to 60 min.
Attached cells were lysed with Laenmli sample buffer, resolved in 10% SDS-PAGE, and transferred to nitrocellulose membranes. Membranes were incubated with primary antibodies against phospho p42/44 mitogen-activated protein kinases (p-Erk1/2, New England Biolabs, UK) and p42/44 Erk1/2 (t-Erk1/2, New England Biolabs, UK). Membranes were then probed with secondary antibodies horseradish peroxidase-conjugated, and proteins were visualized by chemiluminescent detection.

[5] = system: retinal neovascularization in C57BL/6 mice; type: in vivo; details: mouse, in vivo
From the text: Parstatin (1-41), hydrophobic parstatin (1-26) fragment and hydrophilic parstatin (24-41) fragment were used in an in vivo mouse model of retinal neovascularization. In particular, oxygen-induced retinopathy was used to generate retinal neovascularization as a preclinical disease model for retinopathy of prematurity and other retinal neovascular diseases such as diabetic retinopathy. In this model, exposing newborn mice to hyperoxia prompts regression or delay of retinal vascular development, followed by abnormal angiogenesis after their return to normal oxygen levels. Mainly, this model mirrors the events that occur during retinopathy of prematurity, when infants are removed from oxygen-rich incubators, a condition involving pathological neovascularization that can affect premature infants and result in permanent visual loss. In recent years, the use of this model has been extended to the general study of ischemic vasculopathies, such us diabetic retinopathy, and related antiangiogenic interventions, and it is now used extensively in both basic and applied research environments.
Pathogen-free C57BL/6 mice were treated in accordance with the Association for Research in Vision and Ophthalmology Statement for the Use of Animals in Ophthalmic and Vision Research and the guidelines of the Animal Care and Use Committee at local University Medical School. Litters of 7-day old (P7) mice were exposed to an atmosphere of 75% oxygen in an airtight incubator for 5 days (P12), after which they were returned to room air for 5 days (P17). For quantification of oxygen-induced retinal neovascularization, mice on P17 were given an intraocular injection of 1 μl of rat anti-mouse platelet endothelial cell adhesion molecule-1 (PECAM-1) antibody (Pharmingen, San Jose, Calif.) under a dissecting microscope with Harvard pump microinjection apparatus. Mice were euthanized 12 hours after injection and eyes were fixed in PBS-buffered formalin for 5 hours. […] Retinal flat mounts were prepared and assessed with fluorescence microscope using imaging software. […]

[6] = system: choroidal neovascularization in C57BL/6J mice; type: in vivo; details: mouse, in vivo
Description: Parstatin (1-41), hydrophobic parstatin (1-26) fragment and hydrophilic parstatin (24-41) fragment were used in an in vivo mouse model of choroidal neovascularization. In particular, laser photocoagulation-induced rupture of Bruch's membrane was used to generate choroidal neovascularization as a preclinical disease model for age-related macular degeneration. Pathogen-free C57BL/6J (4-5 week-old) mice were treated in accordance with the Association for Research in Vision and Ophthalmology Statement for the Use of Animals in Ophthalmic and Vision Research and the guidelines of the Animal Care and Use Committee at local University Medical School.
C57BL/6J (4-5 week-old) mice were anesthetized with ketamine hydrochloride (100 mg/kg body weight) and xylazine-(4 mg/Kg body weight) and the pupils were dilated with 1% tropicamide. Laser photocoagulation (75 μm spot size, 0.1 sec duration, 120 mW) was performed in the 9, 12, and 3 o'clock positions of the posterior pole of the retina with the slit lamp delivery system of an Oculight GL diode laser (Index, Mountain View, Calif.) and a handheld cover slip as a contact lens to view the retina. Production of a bubble at the time of laser, which indicates rupture of Bruch's membrane, is an important factor in obtaining CNV. Therefore, only burns in which a bubble was produced were included in the study. Two weeks after rupture of Bruch's membrane, anesthetized mice were perfused with 50 mg/ml fluorescein-labelled-dextran (2×10^6 average molecular weight, Sigma-Aldrich, St. Louis, Mo.). The eyes were then dissected and fixed in 10% Formalin for 3 hours and choroidal flat mounts were examined by fluorescence microscopy. Image-Pro Plus software (Media Cybernetics, Silver Spring, Md.) was used to measure the total area of CNV at each rupture site by personnel blinded as to study treatments and groups.
Intraocular injections of parstatin peptides were performed with a Harvard pump microinjection apparatus and pulled glass micropipets. […] Choroidal neovascularization was assessed 14 days after laser treatment.

Molecule	infarct size, inhibitor alone [1]	infarct size / LVDP, inhibitor alone [2]	also measured
C=C1[C@@H]2CC[C@H]3[C@]4(C)C[C@H](O[C@@H]5O[C@H](CO)[C@@H](OS(=O)(=O)O)[C@H](OS(=O)(=O)O)[C@H]5OC(=O)CC(C)C)C[C@@H](C(=O)O)[C@H]4CC[C@]3(C2)[C@H]1O [Atractyloside, atractyloside, reference compound]	no effect		
COc1ccc(Cl)cc1C(=O)NCCc1ccc(S(=O)(=O)NC(=O)NC2CCCCC2)cc1 [Glibenclamide, glibenclamide, reference compound]	no effect		
COC(=O)[C@@H](N)CCCNC(=N)N[N+](=O)[O-] [L-NMA, Nω-nitro-L-arginine methyl ester, reference compound]	without effect	no effect	
O=c1onc2cnc3ccccc3n12 [ODQ, 1H-[1,2, 4]oxadiazolo-[4,3-a]quinoxalin-1-one, reference compound]	no effect	no effect	
MGPRRLLLVAACFSLCGPLL-SARALTRSAPTPRDRANKETR (MGPRRLLLVAACFSLCGPLLSARALTRSAPTPRDRANKETR; Scrambled synthetic peptide) [modulated parstatin, human parstatin with amino acids 24 to 41 scrambled]			bFGF-induced DNA synthesis [3]: inhibit; activation of Erk1/2 [4]: inhibit
MGPRRLLLVAACFSLCGPLLSARTRARRPESKATNATLDPR (cysteines drawn unpaired) [parstatin (1-41)]			baseline hemodynamics (heart rate, blood pressures) between groups ([1]; rat, in vivo): no significant differences; inotropic or chronotropic effects before ischemia ([2]; 1 μM): did not have inotropic or chronotropic effects; tolerability in newborn mice [5]: not well tolerated; tolerability (slit lamp: irritation, inflammation, ocular toxicity; systemic toxicity) [6]: well tolerated
